The values that follow come from patent US8618289B2 (Ambit Biosciences Corporation, priority 2008, dated 2013).

Read-outs that look alike come from different tables or passages of the source.

Assay [1] concerns the target RAF kinases (Homo sapiens, UniProt P04049). The settings on record: read-out: RAF1 Kd; RAF1.
The target of assay [2] is RAF kinases (Homo sapiens, UniProt P15056). The settings on record: read-out: BRAF WT Kd; BRAF WT.
In assay [3] the test system is MEK1 phosphorylation in the A375 human melanoma cell line. Put plainly: cells. The settings on record: A-375, read-out: pMEK IC50.
The target in assay [4] is T1, RAF kinases (Homo sapiens, UniProt P15056, V600E). Put plainly: biochemical.
T1 sequence (P15056 whole entry V600E): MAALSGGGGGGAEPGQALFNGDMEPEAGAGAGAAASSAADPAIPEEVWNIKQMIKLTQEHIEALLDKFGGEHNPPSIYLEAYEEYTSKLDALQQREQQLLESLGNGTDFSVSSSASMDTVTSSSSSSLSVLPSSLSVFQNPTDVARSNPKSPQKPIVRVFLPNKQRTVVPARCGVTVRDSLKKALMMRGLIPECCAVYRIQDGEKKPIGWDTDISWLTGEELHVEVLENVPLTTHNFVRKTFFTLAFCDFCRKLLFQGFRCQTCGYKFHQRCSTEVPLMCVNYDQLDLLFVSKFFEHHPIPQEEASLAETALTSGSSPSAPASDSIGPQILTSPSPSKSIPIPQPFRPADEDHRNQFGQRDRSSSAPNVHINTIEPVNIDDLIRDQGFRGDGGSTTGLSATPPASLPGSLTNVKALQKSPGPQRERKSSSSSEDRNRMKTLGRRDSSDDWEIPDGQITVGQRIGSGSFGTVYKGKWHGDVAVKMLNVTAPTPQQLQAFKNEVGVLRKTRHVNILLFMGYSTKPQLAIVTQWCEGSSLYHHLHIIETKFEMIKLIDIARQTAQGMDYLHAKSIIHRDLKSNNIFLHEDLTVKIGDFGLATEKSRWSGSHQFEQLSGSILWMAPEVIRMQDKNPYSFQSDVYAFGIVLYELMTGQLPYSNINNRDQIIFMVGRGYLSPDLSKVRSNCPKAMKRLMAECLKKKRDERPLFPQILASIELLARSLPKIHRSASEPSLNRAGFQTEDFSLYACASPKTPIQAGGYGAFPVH
Assay [5] concerns the target T1, RAF kinases. The settings on record: read-out: BRAF V600E Kd; BRAF V600E.
In another assay the test system is A375 cells. Briefly: cells. The settings on record: Homo sapiens, A-375, read-out: A375 Viability EC50.

Chain of RAF kinases (Homo sapiens, UniProt P15056) (P15056 whole entry): as the sequence (P15056 whole entry V600E) above, with E600V counted along it
Chain of RAF kinases (Homo sapiens, UniProt P04049) (P04049 whole entry): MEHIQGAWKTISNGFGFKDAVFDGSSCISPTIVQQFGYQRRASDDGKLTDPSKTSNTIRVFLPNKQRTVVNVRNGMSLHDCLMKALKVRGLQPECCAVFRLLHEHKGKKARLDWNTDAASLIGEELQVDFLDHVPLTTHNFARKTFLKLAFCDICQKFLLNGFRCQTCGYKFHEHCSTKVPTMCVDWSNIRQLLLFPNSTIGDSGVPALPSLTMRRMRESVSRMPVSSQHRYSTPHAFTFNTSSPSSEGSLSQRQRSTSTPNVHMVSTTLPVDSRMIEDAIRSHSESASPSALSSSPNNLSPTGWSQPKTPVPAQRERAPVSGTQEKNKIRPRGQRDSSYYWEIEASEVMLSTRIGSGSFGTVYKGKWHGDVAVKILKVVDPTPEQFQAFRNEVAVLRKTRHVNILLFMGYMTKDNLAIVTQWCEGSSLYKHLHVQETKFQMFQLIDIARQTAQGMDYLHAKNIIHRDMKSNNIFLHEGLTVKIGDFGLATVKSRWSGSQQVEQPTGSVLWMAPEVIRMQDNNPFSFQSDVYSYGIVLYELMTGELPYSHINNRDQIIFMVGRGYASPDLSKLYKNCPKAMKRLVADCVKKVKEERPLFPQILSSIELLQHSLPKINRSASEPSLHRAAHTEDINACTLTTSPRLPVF

A word on the Kd: it is the concentration at which binding is half-saturated. As usually defined, the IC50 is the concentration at which inhibition is half-maximal. As for `COc1cc2ncnc(Sc3cccc(NC(=O)Nc4cc(C(C)(C)C)nn4-c4cccc(C(F)(F)F)c4)c3)c2cc1OC` [Ex 380, 1-(3-tert-butyl-1-(3-(trifluoromethyl)phenyl)-1H-pyrazol-5-yl)-3-(3-(6,7-dimethoxyquinazolin-4-ylthio)phenyl) urea], the Kd at RAF kinases [1] was > 1000 nM; at RAF kinases [2], > 1000 nM; at RAF kinases [4] it was 250 to 500 nM. In assay [3], the IC50 was < 250 nM.
Turning to `COc1cc2ncnc(Sc3cccc(NC(=O)Nc4cc(C(C)(C)C)nn4-c4cccc(F)c4)c3)c2cc1OC` [Ex 360, 1-(3-tert-butyl-1-(3-fluorophenyl)-1H-pyrazol-5-yl)-3-(3-(6,7-dimethoxyquinazolin-4-ylthio)phenyl)urea], the Kd on RAF kinases [1] was > 1000 nM; at RAF kinases [2], > 1000 nM; on RAF kinases [4], 250 to 500 nM. Further, the 50% inhibitory concentration (IC50) in assay [3] is < 250 nM.
As usually defined, the EC50 is the concentration at which the effect is half-maximal. Regarding `COc1cc2ncnc(Oc3cccc(NC(=O)Nc4cc(C(C)(C)C)on4)c3C)c2cc1OC` [Ex290, 1-(5-tert-butylisoxazol-3-yl)-3-(3-(6,7-dimethoxyquinazolin-4-yloxy)-2-methylphenyl)urea], the Kd at RAF kinases [1], at RAF kinases [2] and on RAF kinases [5] was < 250 nM throughout. Besides, the half-inhibitory concentration (IC50) in assay [3] is < 250 nM. Besides, the EC50 in the assay with A375 cells was in the range of 250 to 500 nM.
As to `COc1cc2ncnc(Oc3ccc(Cl)c(NC(=O)Nc4cc(C(C)(C)C)nn4-c4ccc(C)cc4)c3)c2cc1OC` [Ex 298, 1-(3-tert-butyl-1-p-tolyl-1H-pyrazol-5-yl)-3-(2-chloro-5-(6,7-dimethoxyquinazolin-4-yloxy)phenyl)urea], the Kd at RAF kinases [1], on RAF kinases [2] and at RAF kinases [5] was > 1000 nM in each case. In assay [3], the half-inhibitory concentration (IC50) was < 250 nM. For the same compound, the EC50 with A375 cells is < 250 nM.
Regarding `COCCOc1cc2ncnc(Sc3cccc(NC(=O)Nc4cc(C(F)(F)F)n(-c5ccccc5)n4)c3)c2cc1OC` [Ex 244, 1-{3-[6-methoxy-7-(2-methoxyethoxy)quinazolin-4-ylthio]phenyl}-3-[1-phenyl-5-(trifluoromethyl)-1H-pyrazol-3-yl]urea], the Kd on RAF kinases [1], on RAF kinases [2] and at RAF kinases [5] was > 1000 nM in each case. Also, in assay [3], the IC50 is > 1000 nM. Further, in the assay with A375 cells, the concentration giving a half-maximal response (EC50) is > 1000 nM.
Take `COc1cc2c(Oc3cccc(NC(=O)Nc4cc(C(C)(C)F)no4)c3)ncnc2cc1O` [Ex 257, 1-(3-(2-fluoropropan-2-yl)isoxazol-5-yl)-3-(3-(7-hydroxy-6-methoxyquinazolin-4-yloxy)phenyl)urea]: the Kd on RAF kinases [1], at RAF kinases [2] and on RAF kinases [5] was < 250 nM throughout. Besides, the IC50 in assay [3] fell in the range of 250 to 500 nM. Further, the concentration giving a half-maximal response (EC50) in the assay with A375 cells was in the range of 500 to 1000 nM.
With `CCOc1cc2ncnc(Sc3cccc(NC(=O)Nc4cc(C(C)(C)F)no4)c3)c2cc1OC` [Ex 389, 1-(3-(7-ethoxy-6-methoxyquinazolin-4-ylthio)phenyl)-3-(3-(2-fluoropropan-2-yl)isoxazol-5-yl)urea], the Kd at RAF kinases [1], at RAF kinases [2] and on RAF kinases [5] was < 250 nM each time. In assay [3], the concentration for half-maximal inhibition (IC50) was in the range of 500 to 1000 nM. Also, the concentration for a half-maximal effect (EC50) in the assay on A375 cells is 250 to 500 nM.
As to `COc1cc2c(Oc3cccc(NC(=O)Nc4cc(C(C)(C)C)on4)c3)ncnc2cc1OCCCN1CCS(=O)(=O)CC1` [Ex 256, 1-(5-tert-butyl-isoxazol-3-yl)-3-(3-{7-[3-(1,1-dioxo-thiomorpholin-4-yl)-propoxy]-6-methoxy-quinazolin-4-yloxy}-phenyl)-urea], the equilibrium dissociation constant (Kd) at RAF kinases [1], at RAF kinases [2] and on RAF kinases [5] was < 250 nM in each case. In addition, the half-inhibitory concentration (IC50) in assay [3] was < 250 nM. Further, the EC50 in the assay with A375 cells was < 250 nM.
`COc1cc2ncnc(Oc3ccc(F)c(NC(=O)Nc4cc(C(C)(C)C)on4)c3)c2cc1OC` [Ex 367, 1-(5-tert-butylisoxazol-3-yl)-3-(5-(6,7-dimethoxyquinazolin-4-yloxy)-2-fluorophenyl)urea]: the Kd at RAF kinases [1], at RAF kinases [2] and on RAF kinases [5] was < 250 nM throughout. Moreover, in assay [3], the half-maximal inhibitory concentration (IC50) was < 250 nM. Further, in the assay on A375 cells, the EC50 was 250 to 500 nM.
As to `COc1cc2ncnc(Sc3cccc(NC(=O)Nc4cc(C5(C(F)(F)F)CC5)on4)c3)c2cc1OC` [Ex 378, 1-(3-(6,7-dimethoxyquinazolin-4-ylthio)phenyl)-3-(5-(1-(trifluoromethyl)cyclopropyl)isoxazol-3-yl)urea], the Kd on RAF kinases [1], on RAF kinases [2] and at RAF kinases [5] was < 250 nM throughout. Besides, the half-inhibitory concentration (IC50) in assay [3] lay within 250 to 500 nM. Besides, in the assay with A375 cells, the concentration giving a half-maximal response (EC50) is < 250 nM.
Take `COCCOc1cc2ncnc(Sc3cccc(NC(=O)Nc4cc(C(F)(F)F)nn4C)c3)c2cc1OC` [Ex 239, 1-{3-[6-methoxy-7-(2-methoxyethoxy)quinazolin-4-ylthio]phenyl}-3-[1-methyl-3-(trifluoromethyl)-1H-pyrazol-5-yl]urea]: the Kd on RAF kinases [1], at RAF kinases [2] and at RAF kinases [5] was < 250 nM each time. The IC50 in assay [3] was 250 to 500 nM. Also, in the assay on A375 cells, the concentration for a half-maximal effect (EC50) was > 1000 nM.
For the compound `CCOc1cc2c(Sc3cccc(NC(=O)Nc4cc(C(C)(C)C(F)(F)F)on4)c3)ncnc2cc1OC` [Ex 262, 1-(3-(6-ethoxy-7-methoxyquinazolin-4-ylthio)phenyl)-3-(5-(1,1,1-trifluoro-2-methylpropan-2-yl)isoxazol-3-yl)urea], the Kd at RAF kinases [1], at RAF kinases [2] and on RAF kinases [5] was < 250 nM throughout. In addition, the IC50 in assay [3] is < 250 nM. Moreover, the 50% effective concentration (EC50) in the assay with A375 cells is > 1000 nM.
Consider `COc1cc2ncnc(Oc3cccc(NC(=O)Nc4cc(C(C)(C)C(F)(F)F)on4)c3)c2cc1O` [Ex 264, 1-(3-(6-hydroxy-7-methoxyquinazolin-4-yloxy)phenyl)-3-(5-(1,1,1-trifluoro-2-methylpropan-2-yl)isoxazol-3-yl)urea], for which the Kd at RAF kinases [1], at RAF kinases [2] and at RAF kinases [5] was < 250 nM each time. Moreover, in assay [3], the 50% inhibitory concentration (IC50) was < 250 nM. Besides, the EC50 with A375 cells is < 250 nM.
As for `CCOc1cc2c(Sc3cccc(NC(=O)Nc4cc(C(C)(CF)CF)on4)c3)ncnc2cc1OC` [Ex 395, 1-(5-(1,3-difluoro-2-methylpropan-2-yl)isoxazol-3-yl)-3-(3-(6-ethoxy-7-methoxyquinazolin-4-ylthio)phenyl)urea], the dissociation constant Kd on RAF kinases [1], at RAF kinases [2] and at RAF kinases [5] was < 250 nM in each case. Also, the 50% inhibitory concentration (IC50) in assay [3] is < 250 nM. Besides, the EC50 in the assay on A375 cells is < 250 nM.
For `COc1cc2ncnc(Sc3cccc(NC(=O)Nc4cc(C(F)(F)F)no4)c3)c2cc1OC` [Ex 382, 1-(3-(6,7-dimethoxyquinazolin-4-ylthio)phenyl)-3-(3-(trifluoromethyl)isoxazol-5-yl)urea], the Kd on RAF kinases [1], on RAF kinases [2] and at RAF kinases [5] was < 250 nM throughout. Besides, the IC50 in assay [3] was > 1000 nM. Besides, in the assay on A375 cells, the EC50 is > 1000 nM.
`COc1cc2ncnc(Oc3cccc(NC(=O)Nc4cccc(C(C)(C)C#N)c4)c3)c2cc1OC` [Ex 278, 1-(3-(2-cyanopropan-2-yl)phenyl)-3-(3-(6,7-dimethoxyquinazolin-4-yloxy)phenyl)urea]: the Kd at RAF kinases [1], on RAF kinases [2] and on RAF kinases [5] was < 250 nM throughout. Besides, the IC50 in assay [3] was 250 to 500 nM. Also, the EC50 in the assay on A375 cells is 500 to 1000 nM.
On to `COc1cc2ncnc(Sc3cccc(NC(=O)Nc4cc(C(C)(C)C(F)(F)F)no4)c3)c2cc1OC` [Ex 268, 1-(3-(6,7-dimethoxyquinazolin-4-ylthio)phenyl)-3-(3-(1,1,1-trifluoro-2-methylpropan-2-yl)isoxazol-5-yl)urea], for which the Kd at RAF kinases [1], on RAF kinases [2] and at RAF kinases [5] was < 250 nM in each case. Further, the IC50 in assay [3] was < 250 nM. Also, the concentration giving a half-maximal response (EC50) with A375 cells lay within 500 to 1000 nM.
Regarding `COCCOc1cc2ncnc(Oc3cccc(NC(=O)Nc4cc(C5CC5)no4)c3)c2cc1OC` [Ex 214, 1-(3-cyclopropylisoxazol-5-yl)-3-(3-(6-methoxy-7-(2-methoxyethoxy)quinazolin-4-yloxy)phenyl)urea], the dissociation constant (Kd) at RAF kinases [1], at RAF kinases [2] and on RAF kinases [5] was < 250 nM in each case. Further, in assay [3], the concentration for half-maximal inhibition (IC50) is > 1000 nM. In the assay with A375 cells, the half-maximal effective concentration (EC50) was > 1000 nM.
Turning to `COc1cc2ncnc(Oc3cccc(NC(=O)Nc4cc(C5(C(F)(F)F)CC5)on4)c3)c2cc1OC` [Ex 377, 1-(3-(6,7-dimethoxyquinazolin-4-yloxy)phenyl)-3-(5-(1-(trifluoromethyl)cyclopropyl)isoxazol-3-yl)urea], the dissociation constant (Kd) on RAF kinases [1], on RAF kinases [2] and on RAF kinases [5] was < 250 nM each time. Besides, the IC50 in assay [3] was < 250 nM. Besides, the concentration giving a half-maximal response (EC50) in the assay on A375 cells is < 250 nM.
As to `CCOc1cc2c(Oc3cccc(NC(=O)Nc4cc(C(C)(C)C(F)(F)F)on4)c3)ncnc2cc1OC` [Ex 260, 1-(3-(6-ethoxy-7-methoxyquinazolin-4-yloxy)phenyl)-3-(5-(1,1,1-trifluoro-2-methylpropan-2-yl)isoxazol-3-yl)urea], the Kd on RAF kinases [1], at RAF kinases [2] and on RAF kinases [5] was < 250 nM in each case. Also, the IC50 in assay [3] was < 250 nM. Moreover, the half-maximal effective concentration (EC50) in the assay with A375 cells is < 250 nM.
For `COc1cc2ncnc(Oc3cccc(NC(=O)Nc4cc(C(C)(C)F)no4)c3F)c2cc1OC` [Ex 296, 1-(3-(6,7-dimethoxyquinazolin-4-yloxy)-2-fluorophenyl)-3-(3-(2-fluoropropan-2-yl)isoxazol-5-yl)urea], the dissociation constant Kd on RAF kinases [1], on RAF kinases [2] and at RAF kinases [5] was < 250 nM throughout. For the same compound, the IC50 in assay [3] is > 1000 nM. Moreover, the half-maximal effective concentration (EC50) with A375 cells is > 1000 nM.
